Where two headings read alike, the source gives them in different places.
Assays:
[1] = test system: BAW (Spodoptera exigua); assay: Bioassays on Beet Armyworm (BAW), 128-well diet tray assay; assay type: in vivo; settings: for pest or weed control at 50 µg/cm2: Spodoptera exigua, 168 h, read-out: BAW Rating
Method: (§1) Bioassays on Beet Armyworm (“BAW”) and Corn Earworm (“CEW”) and Cabbage Looper (“CL”)
(§2) Certain molecules disclosed in this document were tested against BAW and CEW and CL using procedures described in the following examples. In the reporting of the results, the “BAW & CEW & CL Rating Table” was used (See Table Section).
Bioassays on BAW (Spodoptera exigua)
Bioassays on BAW were conducted using a 128-well diet tray assay. one to five second instar BAW larvae were placed in each well (3 mL) of the diet tray that had been previously filled with 1 mL of artificial diet to which 50 μg/cm^2 of the test compound (dissolved in 50 μL of 90:10 acetone-water mixture) had been applied (to each of eight wells) and then allowed to dry. Trays were covered with a clear self-adhesive cover, and held at 25° C., 14:10 light-dark for five to seven days. Percent mortality was recorded for the larvae in each well; activity in the eight wells was then averaged. The results are indicated in the table entitled “Table 3: Assay Results” (See Table Section).

[2] = test system: CEW (Helicoverpa zea); assay: Bioassays on Corn Earworm (CEW), 128-well diet tray assay; assay type: in vivo; settings: for pest or weed control at 50 µg/cm2: Helicoverpa zea, 168 h, read-out: CEW Rating
Method: as §1, §2
Bioassays on CEW (Helicoverpa zea)
Bioassays on CEW were conducted using a 128-well diet tray assay. one to five second instar CEW larvae were placed in each well (3 mL) of the diet tray that had been previously filled with 1 mL of artificial diet to which 50 μg/cm^2 of the test compound (dissolved in 50 μL of 90:10 acetone-water mixture) had been applied (to each of eight wells) and then allowed to dry. Trays were covered with a clear self-adhesive cover, and held at 25° C., 14:10 light-dark for five to seven days. Percent mortality was recorded for the larvae in each well; activity in the eight wells was then averaged. The results are indicated in the table entitled “Table 3: Assay Results” (See Table Section).

[3] = percent mortality, second instar larvae, 50 μg/cm^2 on artificial diet, five to seven days, 25° C.

Row | Structure (SMILES) | pest or weed control at 50 µg/cm2 [1] [%] | pest or weed control at 50 µg/cm2 [2, 3] [%] | also measured
1 | Cc1cc(/C=C/C(c2cc(Cl)cc(Cl)c2)C(F)(F)F)ccc1C(=O)NCc1ccccc1 (stereo not drawn) [AC11] | 50 to 100 | 50 to 100 | 
2 | Cc1cc(/C=C/C(c2cc(Cl)cc(Cl)c2)C(F)(F)F)ccc1C(=O)NCc1ccccn1 (stereo not drawn) [AC12] | 50 to 100 | 50 to 100 | 
3 | Cc1cc(/C=C/C(c2cc(Cl)cc(Cl)c2)C(F)(F)F)ccc1C(=O)NC(C)(C)c1ccccn1 (stereo not drawn) [AC16] | 50 to 100 | 50 to 100 | 
4 | Cc1cc(/C=C/C(c2cc(Cl)cc(Cl)c2)C(F)(F)F)ccc1C(=O)NCc1ccoc1 (stereo not drawn) [AC20] | 50 to 100 | 50 to 100 | 
5 | Cc1cc(/C=C/C(c2cc(Cl)c(Cl)c(Cl)c2)C(F)(F)F)ccc1C(=O)NCc1ccc(Cl)nc1 (stereo not drawn) [AC22] | 50 to 100 | 50 to 100 | 
6 | Cc1cc(/C=C/C(c2cc(Cl)cc(Cl)c2)C(F)(F)F)ccc1C(=O)NCC(=O)NCC(F)(F)F (stereo not drawn) [AC24] |  |  | BAW Rating [1, 3]: A (50-100); CEW Rating [2, 3]: A (50-100)
7 | O=C(NC1CS(=O)(=O)C1)c1ccc(/C=C/C(c2cc(Cl)c(Cl)c(Cl)c2)C(F)(F)F)cc1C(F)(F)F (stereo not drawn) [AC35] | 50 to 100 | 50 to 100 | 
8 | Cc1cc(/C=C/C(c2cc(Cl)c(F)c(Cl)c2)C(F)(F)F)ccc1C(=O)NCc1ccc(Cl)nc1 (stereo not drawn) [AC38] | 50 to 100 | 50 to 100 | 
9 | Cc1cc(/C=C/C(c2cc(Cl)cc(Cl)c2)C(F)(F)F)ccc1C(=O)NCc1cncnc1 (stereo not drawn) [AC39, 4-((E)-3-(3,5-Dichlorophenyl)-4,4,4-trifluorobut-1-enyl)-2-methyl-N-((pyrimidin-5-yl)methyl)benzamide] | 50 to 100 | 50 to 100 | 
10 | Cc1cc(/C=C/C(c2cc(Cl)cc(Cl)c2)C(F)(F)F)ccc1C(=O)NCC(=O)NC1CC1 (stereo not drawn) [AC40] | 50 to 100 | 50 to 100 | 
11 | Cc1cc(/C=C/C(c2cc(Cl)cc(Cl)c2)C(F)(F)F)ccc1C(=O)NCC(=O)NC1CSC1 (stereo not drawn) [AC41] | 50 to 100 |  | 
12 | Cc1cc(/C=C/C(c2cc(Cl)cc(Cl)c2)C(F)(F)F)ccc1C(=O)NCc1nc2ccccc2s1 (stereo not drawn) [AC42] | 50 to 100 |  | 
13 | Cc1cc(/C=C/C(c2cc(Cl)cc(Cl)c2)C(F)(F)F)ccc1C(=O)NN(C)c1ccccc1F (stereo not drawn) [AC45] | 50 to 100 | 50 to 100 | 
14 | O=C(NCc1ccc(Cl)cn1)c1ccc(/C=C/C(c2cc(Cl)cc(Cl)c2)C(F)(F)F)cc1Br (stereo not drawn) [AC46] | 50 to 100 | 50 to 100 | 
15 | O=C(CNC(=O)c1ccc(/C=C/C(c2cc(Cl)cc(Cl)c2)C(F)(F)F)cc1F)NCC(F)(F)F (stereo not drawn) [AC62] | 50 to 100 | 50 to 100 | 
16 | O=C(CNC(=O)c1ccc(/C=C/C(c2cc(Cl)c(F)c(Cl)c2)C(F)(F)F)cc1F)NCC(F)(F)F (stereo not drawn) [AC68] | 50 to 100 | 50 to 100 | 
17 | Cc1cc(/C=C/C(c2cc(Cl)cc(Cl)c2)C(F)(F)F)ccc1C(=O)NCC(=O)NC1CS(=O)(=O)C1 (stereo not drawn) [AC81] | 50 to 100 |  | 
18 | O=C(NC1CS(=O)(=O)C1)c1ccc(/C=C/C(c2cc(Cl)c(F)c(Cl)c2)C(F)(F)F)cc1F (stereo not drawn) [AC84] | 50 to 100 | 50 to 100 | 
19 | CCc1cc(/C=C/C(c2cc(Cl)c(F)c(Cl)c2)C(F)(F)F)ccc1C(=O)NC1CS(=O)(=O)C1 (stereo not drawn) [AC86] | 50 to 100 | 50 to 100 | 
20 | FC(F)(F)CNC(=S)CNC(=S)c1ccc(/C=C/C(c2cc(Cl)c(Cl)c(Cl)c2)C(F)(F)F)cc1Br (stereo not drawn) [AC90, (E)-2-Bromo-N-(2-thioxo-2-((2,2,2-trifluoroethyl)amino)ethyl)-4-(4,4,4-trifluoro-3-(3,4,5-trichlorophenyl)but-1-en-1-yl)benzothioamide] | 50 to 100 | 50 to 100 | 
21 | O=C(CNC(=S)c1ccc(/C=C/C(c2cc(Cl)c(Cl)c(Cl)c2)C(F)(F)F)cc1Br)NCC(F)(F)F (stereo not drawn) [AC91, (E)-2-(2-Bromo-4-(4,4,4-trifluoro-3-(3,4,5-trichlorophenyl)but-1-en-1-yl)phenylthioamido)-N-(2,2,2-trifluoroethyl)acetamide] | 50 to 100 | 50 to 100 | 
22 | O=C(NCC(=S)NCC(F)(F)F)c1ccc(/C=C/C(c2cc(Cl)c(Cl)c(Cl)c2)C(F)(F)F)cc1Br (stereo not drawn) [AC92, (E)-2-Bromo-N-(2-thioxo-2-((2,2,2-trifluoroethyl)amino)ethyl)-4-(4,4,4-trifluoro-3-(3,4,5-trichlorophenyl)but-1-en-1-yl)benzamide] | 50 to 100 | 50 to 100 | 

Row | Structure (SMILES) | pest or weed control at 50 µg/cm2 [1] [%] | pest or weed control at 50 µg/cm2 [2, 3] [%] | also measured
23 | Cc1cc(/C=C\C(c2cc(Cl)cc(Cl)c2)C(F)(F)F)ccc1C(=O)NCC(=O)NC1CC1 (stereo not drawn) [AC93] | 50 to 100 |  | 
24 | O=C(CNC(=O)c1ccc(/C=C\C(c2cc(Cl)c(Cl)c(Cl)c2)C(F)(F)F)cc1Br)NCC(F)(F)F (stereo not drawn) [AC95, (Z)-2-Bromo-N-(2-oxo-2-((2,2,2-trifluoroethyl)amino)ethyl)-4-(4,4,4-trifluoro-3-(3,4,5-trichlorophenyl)but-1-en-1-yl)benzamide] | 50 to 100 | 50 to 100 | 
25 | O=C(CNC(=O)c1ccc(/C=C/C(c2cc(Cl)c(F)c(Cl)c2)C(F)(F)F)cc1[N+](=O)[O-])NCC(F)(F)F (stereo not drawn) [AC98] | 50 to 100 | 50 to 100 | 
26 | O=C(CNC(=O)c1ccc(/C=C/C(c2ccc(F)c(Cl)c2)C(F)(F)F)cc1Br)NCC(F)(F)F (stereo not drawn) [AC99] | 50 to 100 | 50 to 100 | 
27 | O=C(CNC(=O)c1ccc(/C=C/C(c2cc(F)c(Cl)c(F)c2)C(F)(F)F)cc1Br)NCC(F)(F)F (stereo not drawn) [AC102] |  | 50 to 100 | 
28 | O=C(NC1CCN(C2COC2)CC1)c1ccc(/C=C/C(c2cc(Cl)c(Cl)c(Cl)c2)C(F)(F)F)cc1Br (stereo not drawn) [AC108, (E)-2-Bromo-N-(1-(oxetan-3-yl)piperidin-4-yl)-4-(4,4,4-trifluoro-3-(3,4,5-trichlorophenyl)but-1-en-1-yl)benzamide] | 0 to 50 |  | 
29 | Cc1cc(/C=C/C(c2cc(Cl)cc(Cl)c2)C(F)(F)F)ccc1C(=O)NCC1CCCO1 (stereo not drawn) [AC118] | 50 to 100 |  | 
30 | O=C(Cn1ncc2cc(/C=C/C(c3cc(Cl)c(F)c(Cl)c3)C(F)(F)F)ccc2c1=O)NCC(F)(F)F (stereo not drawn) [BC14, (E)-2-(6-(3-(3,5-Dichloro-4-fluorophenyl)-4,4,4-trifluorobut-1-en-1-yl)-1-oxophthalazin-2(1H)-yl)-N-(2,2,2-trifluoroethyl)acetamide] | 50 to 100 |  | 
31 | O=C(Cc1ccc(Cl)nc1)NCc1ccc(/C=C/C(c2cc(Cl)c(Cl)c(Cl)c2)C(F)(F)F)cc1Cl (stereo not drawn) [CC14] | 50 to 100 |  | 
32 | CCNC(=O)NCc1ccc(/C=C/C(c2cc(Cl)cc(Cl)c2)C(F)(F)F)cc1Cl (stereo not drawn) [CC31, (E)-1-(2-Chloro-4-(3-(3,5-dichlorophenyl)-4,4,4-trifluorobut-1-en-1-yl)benzyl)-3-ethylurea] | 0 to 50 |  | 
33 | O=C(NCc1ccc(/C=C/C(c2cc(Cl)c(Cl)c(Cl)c2)C(F)(F)F)cc1Cl)Oc1ccccc1Cl (stereo not drawn) [CC40] |  |  | pest or weed control at 50 µg/cm2 [2]: 50 to 100%
34 | O=C(CC(F)(F)F)NCc1ccc(/C=C/C(c2cc(Cl)c(Cl)c(Cl)c2)C(F)(F)F)c2ccccc12 (stereo not drawn) [CC46, (E)-3,3,3-Trifluoro-N-((4-(4,4,4-trifluoro-3-(3,4,5-trichlorophenyl)but-1-en-1-yl)naphthalen-1-yl)methyl)propanamide] |  | 50 to 100 | 
35 | O=C(NOc1ccc(/C=C/C(c2cc(Cl)c(Cl)c(Cl)c2)C(F)(F)F)cc1)C1CC1 (stereo not drawn) [CC52, (E)-N-(4-(4,4,4-Trifluoro-3-(3,4,5-trichlorophenyl)but-1-en-1-yl)phenoxy)cyclopropanecarboxamide] | 50 to 100 |  | 
36 | FC(F)(F)C(/C=C/c1ccc(-n2cncn2)cc1)c1ccccc1 (stereo not drawn) [DC3] | 0 to 50 |  | 
37 | FC(F)(F)C(/C=C/c1ccc(-n2cncn2)cc1)c1ccc(Cl)cc1 (stereo not drawn) [DC4] | 50 to 100 |  | 
38 | Fc1ccc(C(/C=C/c2ccc(-n3cncn3)cc2)C(F)(F)F)cc1 (stereo not drawn) [DC7] | 50 to 100 |  | 
39 | Fc1cc(F)cc(C(/C=C/c2ccc(-n3cncn3)cc2)C(F)(F)F)c1 (stereo not drawn) [DC8] | 50 to 100 |  | 
40 | Cc1cc(C)cc(C(/C=C/c2ccc(-n3cncn3)cc2)C(F)(F)F)c1 (stereo not drawn) [DC11] | 50 to 100 |  | 
41 | COc1c(Cl)cc(C(/C=C/c2ccc(-n3cncn3)cc2)C(F)(F)F)cc1Cl (stereo not drawn) [DC20] | 50 to 100 |  | 
42 | Cc1ncnn1-c1ccc(/C=C/C(c2cc(Cl)cc(Cl)c2)C(F)(F)F)cc1 (stereo not drawn) [DC23] |  | 50 to 100 | 
43 | OCc1cc(/C=C/C(c2cc(Cl)cc(Cl)c2)C(F)(F)F)ccc1-n1cncn1 (stereo not drawn) [DC53] |  | 50 to 100 | 
44 | Cc1cc(-n2cncn2)ccc1/C=C/C(c1cc(Cl)cc(Cl)c1)C(F)(F)F (stereo not drawn) [DC65] |  | 50 to 100 | 

Reference: patent US9210927B2, “Pesticidal compositions and processes related thereto” (Dow AgroSciences LLC, priority 2013, dated 2015)
